In patent US20150328157A1, “APPLICATION OF SILICON DIOXIDE AEROGEL AS NANO-DRUG CARRYING SYSTEM IN PHARMACY” (GRADUATE SCHOOL AT SHENZHEN, TSINGHUA UNIVERSITY, priority 2012, published 2015):

Experiment: Bioavailability of nanosized paclitaxel oral dosage form in rat bodies (plasma paclitaxel by HPLC)
Assay type: in vivo, SD rats
Conditions: male, SD, one-time intragastric administration 40 mg/kg
Method: Chromatographic conditions: Elite SinoChrom 300A ODS-AP 5 nm 4.6×250 mm Mobile phase: methanol:water:acetonitrile=23:41:36; flow rate: 1.0 ml/min; detection wavelength: 227 nm; and sample size: 20 μl.
Preparation of an internal standard solution: weighing about 10 mg of a diazepam control product, precisely weighing, putting into a 100 ml measuring flask, dissolving with methanol, diluting to the scale and shaking up to obtain an internal standard stock solution with the concentration of 100 μg/ml. An appropriate amount of the stock solution was precisely weighed, diluted with methanol to prepare 10 μg/ml of internal standard control product solution and preserved in the refrigerator at 4° C. for later use.
100 ul of plasma sample was taken and put into an EP tube, 5 μl (10 μg/ml) and 40 μl of NaHCO3(1 mol/L) was added, whirling was performed for 1 min, 1 ml of an extraction solvent, namely ethyl ether, was added, whirling was performed for 2 min, centrifugation was performed at 3500 r/min for 10 min, supernatant fluid was taken and blow-dried under air flow of 40° C., the residue was dissolved in 40 μl of mobile phase, whirling was performed for 1 min, centrifugation was performed at 3500 r/min for 10 min, and then 20 μl of supernatant fluid was taken for sample injection and analysis. […]

AUC: 4890 ng·h/mL
SMILES: CC(=O)O[C@H]1C(=O)[C@@]2(C)[C@H]([C@H](OC(=O)c3ccccc3)[C@]3(O)C[C@H](OC(=O)[C@H](O)[C@@H](NC(=O)c4ccccc4)c4ccccc4)C(C)=C1C3(C)C)[C@]1(OC(C)=O)CO[C@@H]1C[C@@H]2O [paclitaxel]
